Read-outs that look alike come from different tables or passages of the source.
Experiments:
Type in all cases: biochemical
F338A HuAChE = F338A HuAChE (Homo sapiens, UniProt P22303, F369A); experiment: HuAChE inhibition kinetics
Wild Type HuAChE = Wild Type HuAChE (Homo sapiens, UniProt P22303); experiment: HuAChE inhibition kinetics
W86A HuAChE = W86A HuAChE (Homo sapiens, UniProt P22303, W117A); experiment: HuAChE inhibition kinetics
Y337A HuAChE = Y337A HuAChE (Homo sapiens, UniProt P22303, Y368A); experiment: HuAChE inhibition kinetics
Sequence of Y337A HuAChE (P22303 32-614 Y368A): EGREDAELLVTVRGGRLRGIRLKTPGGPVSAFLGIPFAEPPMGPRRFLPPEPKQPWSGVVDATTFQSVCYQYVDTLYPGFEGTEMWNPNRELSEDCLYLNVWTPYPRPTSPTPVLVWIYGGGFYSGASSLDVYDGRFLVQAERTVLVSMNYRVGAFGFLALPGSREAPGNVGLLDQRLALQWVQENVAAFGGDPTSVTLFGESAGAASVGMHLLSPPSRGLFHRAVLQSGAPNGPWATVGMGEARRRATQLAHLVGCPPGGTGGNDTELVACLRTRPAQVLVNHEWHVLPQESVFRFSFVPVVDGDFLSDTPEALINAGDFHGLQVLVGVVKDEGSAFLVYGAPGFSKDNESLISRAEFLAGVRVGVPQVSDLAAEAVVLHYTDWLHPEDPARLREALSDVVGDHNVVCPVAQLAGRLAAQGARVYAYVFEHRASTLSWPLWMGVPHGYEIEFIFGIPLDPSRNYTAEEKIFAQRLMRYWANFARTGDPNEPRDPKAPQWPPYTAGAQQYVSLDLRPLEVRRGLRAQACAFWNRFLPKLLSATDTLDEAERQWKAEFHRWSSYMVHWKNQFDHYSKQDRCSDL

F295A/F297A HuAChE = F295A/F297A HuAChE (Homo sapiens, UniProt P22303, F326A/F328A); experiment: HuAChE inhibition kinetics
Sequence of F295A/F297A HuAChE (P22303 32-614 F326A/F328A): as the sequence (P22303 32-614 Y368A) above, with F295A, F297A, A337Y counted along it

F297A HuAChE = F297A HuAChE (Homo sapiens, UniProt P22303, F328A); experiment: HuAChE inhibition kinetics; conditions: F297A HuAChE
Sequence of F297A HuAChE (P22303 32-614 F328A): as the sequence (P22303 32-614 Y368A) above, with F297A, A337Y counted along it

E202Q HuAChE = E202Q HuAChE (Homo sapiens, UniProt P22303, E233Q); experiment: HuAChE inhibition kinetics; conditions: for k2, carbamylation rate constant: E202Q HuAChE
Sequence of E202Q HuAChE (P22303 32-614 E233Q): as the sequence (P22303 32-614 Y368A) above, with E202Q, A337Y counted along it

Y341A HuAChE = Y341A HuAChE (Homo sapiens, UniProt P22303, Y372A); experiment: HuAChE inhibition kinetics; conditions: for k2, carbamylation rate constant: Y341A HuAChE
Sequence of Y341A HuAChE (P22303 32-614 Y372A): as the sequence (P22303 32-614 Y368A) above, with A337Y, Y341A counted along it

Y337F HuAChE = Y337F HuAChE (Homo sapiens, UniProt P22303, Y368F); experiment: HuAChE inhibition kinetics; conditions: for k2, carbamylation rate constant: Y337F HuAChE
Sequence of Y337F HuAChE (P22303 32-614 Y368F): as the sequence (P22303 32-614 Y368A) above, with A337F counted along it

[1] = molecular target: Y72N/Y124Q/W286A/ F295L/F297V/Y337A HuAChE (Homo sapiens, UniProt P22303, F326L/F328V/W317A/Y103N/Y155Q/Y368A); experiment: HuAChE inhibition kinetics
Sequence of Y72N/Y124Q/W286A/ F295L/F297V/Y337A HuAChE (P22303 32-614 Y103N/Y155Q/W317A/F326L/F328V/Y368A): as the sequence (P22303 32-614 Y368A) above, with Y72N, Y124Q, W286A, F295L, F297V counted along it

F295A HuAChE = F295A HuAChE (Homo sapiens, UniProt P22303, F326A); experiment: HuAChE inhibition kinetics; conditions: for k2, carbamylation rate constant: F295A HuAChE
Sequence of F295A HuAChE (P22303 32-614 F326A): as the sequence (P22303 32-614 Y368A) above, with F295A, A337Y counted along it

D74N HuAChE = D74N HuAChE (Homo sapiens, UniProt P22303, D105N); experiment: HuAChE inhibition kinetics; conditions: for k2, carbamylation rate constant: D74N HuAChE
Sequence of D74N HuAChE (P22303 32-614 D105N): as the sequence (P22303 32-614 Y368A) above, with D74N, A337Y counted along it

F295A/F338A HuAChE = F295A/F338A HuAChE (Homo sapiens, UniProt P22303, F326A/F369A); experiment: HuAChE inhibition kinetics
Sequence of F295A/F338A HuAChE (P22303 32-614 F326A/F369A): as the sequence (P22303 32-614 Y368A) above, with F295A, A337Y, F338A counted along it

F295A/F338A/V407F HuAChE = F295A/F338A/V407F HuAChE (Homo sapiens, UniProt P22303, F326A/F369A/V438F); experiment: HuAChE inhibition kinetics; conditions: for k2, carbamylation rate constant: F295A/F338A/V407F HuAChE
Sequence of F295A/F338A/V407F HuAChE (P22303 32-614 F326A/F369A/V438F): as the sequence (P22303 32-614 Y368A) above, with F295A, A337Y, F338A, V407F counted along it

W286A HuAChE = W286A HuAChE (Homo sapiens, UniProt P22303, W317A); experiment: HuAChE inhibition kinetics
Sequence of W286A HuAChE (P22303 32-614 W317A): as the sequence (P22303 32-614 Y368A) above, with W286A, A337Y counted along it

F295L/F297V HuAChE = F295L/F297V HuAChE (Homo sapiens, UniProt P22303, F326L/F328V); experiment: HuAChE inhibition kinetics; conditions: for k2, carbamylation rate constant: F295L/F297V HuAChE
Sequence of F295L/F297V HuAChE (P22303 32-614 F326L/F328V): as the sequence (P22303 32-614 Y368A) above, with F295L, F297V, A337Y counted along it

E450A HuAChE = E450A HuAChE (Homo sapiens, UniProt P22303, E481A); experiment: HuAChE inhibition kinetics; conditions: for k2, carbamylation rate constant: E450A HuAChE
Sequence of E450A HuAChE (P22303 32-614 E481A): as the sequence (P22303 32-614 Y368A) above, with A337Y, E450A counted along it

[2] = molecular target: Y72N/Y124Q/W286A/ F295L/F297V/Y337A/ V407F HuAChE (Homo sapiens, UniProt P22303, F326L/F328V/V438F/W317A/Y103N/Y155Q/Y368A); experiment: HuAChE inhibition kinetics
Sequence of Y72N/Y124Q/W286A/ F295L/F297V/Y337A/ V407F HuAChE (P22303 32-614 Y103N/Y155Q/W317A/F326L/F328V/Y368A/V438F): as the sequence (P22303 32-614 Y368A) above, with Y72N, Y124Q, W286A, F295L, F297V, V407F counted along it

E202A HuAChE = E202A HuAChE (Homo sapiens, UniProt P22303, E233A); experiment: HuAChE inhibition kinetics; conditions: for k2, carbamylation rate constant: E202A HuAChE
Sequence of E202A HuAChE (P22303 32-614 E233A): as the sequence (P22303 32-614 Y368A) above, with E202A, A337Y counted along it

Y72N HuAChE = Y72N HuAChE (Homo sapiens, UniProt P22303, Y103N); experiment: HuAChE inhibition kinetics; conditions: for k2, carbamylation rate constant: Y72N HuAChE
Sequence of Y72N HuAChE (P22303 32-614 Y103N): as the sequence (P22303 32-614 Y368A) above, with Y72N, A337Y counted along it

F295L/F297V/Y337A HuAChE = F295L/F297V/Y337A HuAChE (Homo sapiens, UniProt P22303, F326L/F328V/Y368A); experiment: HuAChE inhibition kinetics; conditions: for k2, carbamylation rate constant: F295L/F297V/Y337A HuAChE
Sequence of F295L/F297V/Y337A HuAChE (P22303 32-614 F326L/F328V/Y368A): as the sequence (P22303 32-614 Y368A) above, with F295L, F297V counted along it

Y133F HuAChE = Y133F HuAChE (Homo sapiens, UniProt P22303, Y164F); experiment: HuAChE inhibition kinetics; conditions: for k2, carbamylation rate constant: Y133F HuAChE
Sequence of Y133F HuAChE (P22303 32-614 Y164F): as the sequence (P22303 32-614 Y368A) above, with Y133F, A337Y counted along it

HuBChE-Wild Type = HuBChE-Wild Type (Homo sapiens, UniProt P06276); experiment: HuBChE inhibition kinetics; conditions: for k2, carbamylation rate constant: HuBChE-Wild Type
Sequence of HuBChE-Wild Type (P06276 29-602): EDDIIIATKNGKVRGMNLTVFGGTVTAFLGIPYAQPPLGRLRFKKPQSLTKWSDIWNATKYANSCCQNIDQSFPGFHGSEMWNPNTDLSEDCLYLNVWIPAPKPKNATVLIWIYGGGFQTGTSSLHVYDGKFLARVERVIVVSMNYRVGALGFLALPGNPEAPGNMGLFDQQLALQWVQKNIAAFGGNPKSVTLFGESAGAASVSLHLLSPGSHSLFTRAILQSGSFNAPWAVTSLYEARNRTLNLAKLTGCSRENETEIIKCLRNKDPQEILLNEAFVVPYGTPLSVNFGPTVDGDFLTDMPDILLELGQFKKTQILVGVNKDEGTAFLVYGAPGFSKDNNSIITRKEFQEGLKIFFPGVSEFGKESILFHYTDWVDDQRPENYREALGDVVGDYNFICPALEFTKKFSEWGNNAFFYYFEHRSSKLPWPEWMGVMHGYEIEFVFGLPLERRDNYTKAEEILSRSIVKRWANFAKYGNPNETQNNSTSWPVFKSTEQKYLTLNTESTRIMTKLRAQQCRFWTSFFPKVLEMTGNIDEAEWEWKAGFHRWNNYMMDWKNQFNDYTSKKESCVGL

W86F HuAChE = W86F HuAChE (Homo sapiens, UniProt P22303, W117F); experiment: HuAChE inhibition kinetics; conditions: for k2, carbamylation rate constant: W86F HuAChE
Sequence of W86F HuAChE (P22303 32-614 W117F): as the sequence (P22303 32-614 Y368A) above, with W86F, A337Y counted along it

Y133A HuAChE = Y133A HuAChE (Homo sapiens, UniProt P22303, Y164A); experiment: HuAChE inhibition kinetics; conditions: for k2, carbamylation rate constant: Y133A HuAChE
Sequence of Y133A HuAChE (P22303 32-614 Y164A): as the sequence (P22303 32-614 Y368A) above, with Y133A, A337Y counted along it

Y124A HuAChE = Y124A HuAChE (Homo sapiens, UniProt P22303, Y155A); experiment: HuAChE inhibition kinetics
Sequence of Y124A HuAChE (P22303 32-614 Y155A): as the sequence (P22303 32-614 Y368A) above, with Y124A, A337Y counted along it

W86A/Y337A HuAChE = W86A/Y337A HuAChE (Homo sapiens, UniProt P22303, W117A/Y368A); experiment: biochemical
Sequence of W86A/Y337A HuAChE (P22303 32-614 W117A/Y368A): as the sequence (P22303 32-614 Y368A) above, with W86A counted along it

[3] = read-out: Kd, noncovalent inhibition (competition with ATC), F338A HuAChE
[4] = read-out: Kd, noncovalent inhibition (competition with ATC), Wild Type HuAChE
[5] = read-out: Kd, noncovalent inhibition (competition with ATC), W86A HuAChE
[6] = read-out: Kd, noncovalent inhibition (competition with ATC), Y337A HuAChE
[7] = Y72N/Y124Q/W286A/F295L/F297V/Y337A HuAChE
[8] = Y72N/Y124Q/W286A/F295L/F297V/Y337A/V407F HuAChE

Sequence of F338A HuAChE (P22303 32-614 F369A): as the sequence (P22303 32-614 Y368A) above, with A337Y, F338A counted along it
Sequence of W86A HuAChE (P22303 32-614 W117A): as the sequence (P22303 32-614 Y368A) above, with W86A, A337Y counted along it
Sequence of Wild Type HuAChE (P22303 32-614): as the sequence (P22303 32-614 Y368A) above, with A337Y counted along it

## CC(C)c1ccc(NC(=O)Oc2ccc3c(c2)C2(C)CCOC2N3C)cc1 (single isomer, unassigned; (+)) [(+)-Cymyl carbamate of physovenol, cymyl carbamate of physovenol]
F338A HuAChE; [3]
  Kd: 57.1 ± 15 µM
Wild Type HuAChE; [4]
  Kd: 1 ± 0.2 µM
W86A HuAChE; [5]
  Kd: 5 ± 1.3 µM
Y337A HuAChE; [6]
  Kd: 2.2 ± 0.7 µM

## CC(C)c1ccc(NC(=O)Oc2ccc3c(c2)C2(C)CCOC2N3C)cc1 (single isomer, unassigned; (-)) [(−)-Cymyl carbamate of physovenol, cymyl carbamate of physovenol]
F338A HuAChE; [3]
  Kd: 40 ± 12 µM
Wild Type HuAChE; [4]
  Kd: 0.71 ± 0.12 µM
W86A HuAChE; [5]
  Kd: 2.5 ± 0.2 µM
Y337A HuAChE; [6]
  Kd: 2.7 ± 1 µM

## CN1CC[C@@]2(C)c3cc(OC(=O)Nc4ccccc4)ccc3N(C)[C@@H]12 [(−)-Phenserine, phenserine]
F295A/F297A HuAChE
  k2, carbamylation rate constant: 8.5 ± 2.5 min⁻¹
F295A/F297A HuAChE; Kd, Michaelis complex (Eq. 1)
  Kd: 2.8 ± 0.8 µM
F297A HuAChE
  k2, carbamylation rate constant: 1.0 ± 0.5 min⁻¹
E202Q HuAChE
  Kd: 17.4 ± 3.4 µM
  k2, carbamylation rate constant: 3.2 ± 1 min⁻¹
Y341A HuAChE
  Kd: 0.69 ± 0.21 µM
  k2, carbamylation rate constant: 0.7 ± 0.3 min⁻¹
Y337F HuAChE
  Kd: 0.28 ± 0.03 µM
  k2, carbamylation rate constant: 0.9 ± 0.07 min⁻¹
[1]
  Kd: 0.12 ± 0.03 µM
F338A HuAChE
  Kd: 41.3 ± 9.5 µM
F338A HuAChE; F338A HuAChE
  k2, carbamylation rate constant: 0.7 ± 0.1 min⁻¹
Wild Type HuAChE
  Kd: 1.39 ± 0.55 µM
Wild Type HuAChE; Wild Type HuAChE
  k2, carbamylation rate constant: 0.9 ± 0.5 min⁻¹
F295A HuAChE
  Kd: 0.09 ± 0.04 µM
  k2, carbamylation rate constant: 2.1 ± 1.2 min⁻¹
D74N HuAChE
  Kd: 3.4 ± 0.61 µM
  k2, carbamylation rate constant: 0.7 ± 0.01 min⁻¹
F295A/F338A HuAChE
  Kd: 0.03 ± 0.008 µM
F295A/F338A/V407F HuAChE
  Kd: 27.2 ± 5.5 µM
  k2, carbamylation rate constant: 0.3 ± 0.1 min⁻¹
W286A HuAChE
  Kd: 0.16 ± 0.03 µM
F295L/F297V HuAChE
  Kd: 0.8 ± 0.36 µM
  k2, carbamylation rate constant: 3.0 ± 1.8 min⁻¹
E450A HuAChE
  Kd: 7.4 ± 1.9 µM
  k2, carbamylation rate constant: 0.2 ± 0.04 min⁻¹
[2]
  Kd: 20.3 ± 6.1 µM
W86A HuAChE
  Kd: 20 ± 9 µM
W86A HuAChE; W86A HuAChE
  k2, carbamylation rate constant: 1.3 ± 1.0 min⁻¹
E202A HuAChE
  Kd: 9.1 ± 3.6 µM
  k2, carbamylation rate constant: 0.2 ± 0.1 min⁻¹
Y72N HuAChE
  Kd: 0.74 ± 0.19 µM
  k2, carbamylation rate constant: 1.7 ± 0.2 min⁻¹
F295L/F297V/Y337A HuAChE
  Kd: 0.3 ± 0.006 µM
  k2, carbamylation rate constant: 0.9 ± 0.2 min⁻¹
Y133F HuAChE
  Kd: 7.6 ± 1.9 µM
  k2, carbamylation rate constant: 0.3 ± 0.09 min⁻¹
Y337A HuAChE
  Kd: 2.75 ± 0.28 µM
Y337A HuAChE; Y337A HuAChE
  k2, carbamylation rate constant: 0.8 ± 0.4 min⁻¹
HuBChE-Wild Type
  Kd: 9 ± 3 µM
  k2, carbamylation rate constant: 0.6 ± 0.2 min⁻¹
W86F HuAChE
  Kd: 0.87 ± 0.34 µM
  k2, carbamylation rate constant: 1.3 ± 0.9 min⁻¹
Y133A HuAChE
  Kd: 76 ± 15 µM
  k2, carbamylation rate constant: 0.4 ± 0.06 min⁻¹

## CNC(=O)Oc1ccc2c(c1)[C@]1(C)CCN(C)[C@@H]1N2C [(−)-Physostigmine, (−)physostigmine salicylate]
F295A/F297A HuAChE
  k2, carbamylation rate constant: 0.6 ± 0.2 min⁻¹
F297A HuAChE
  k2, carbamylation rate constant: 0.60 ± 0.10 min⁻¹
E202Q HuAChE
  k2, carbamylation rate constant: 0.80 ± 0.20 min⁻¹
Y341A HuAChE
  k2, carbamylation rate constant: 1.90 ± 0.30 min⁻¹
Y337F HuAChE
  k2, carbamylation rate constant: 1.90 ± 0.40 min⁻¹
[1]; [7]
  k2, carbamylation rate constant: 0.20 ± 0.05 min⁻¹
  ki, bimolecular rate constant of carbamylation: 34±1.2 × 10^−4 M^−1min^−1
F338A HuAChE; F338A HuAChE
  k2, carbamylation rate constant: 0.40 ± 0.20 min⁻¹
Wild Type HuAChE; Wild Type HuAChE
  k2, carbamylation rate constant: 1.2 ± 0.5 min⁻¹
F295A HuAChE
  k2, carbamylation rate constant: 1.60 ± 0.50 min⁻¹
Y124A HuAChE
  k2, carbamylation rate constant: 6.0 ± 1.8 min⁻¹
  ki, bimolecular rate constant of carbamylation: 150±3 × 10^−4 M^−1min^−1
D74N HuAChE
  k2, carbamylation rate constant: 2.40 ± 0.50 min⁻¹
F295A/F338A HuAChE; F295A/F338A HuAChE
  k2, carbamylation rate constant: 4.5 ± 0.9 min⁻¹
  ki, bimolecular rate constant of carbamylation: 78±19 × 10^−4 M^−1min^−1
F295A/F338A/V407F HuAChE
  k2, carbamylation rate constant: 0.2 ± 0.03 min⁻¹
W286A HuAChE; W286A HuAChE
  k2, carbamylation rate constant: 2.70 ± 0.80 min⁻¹
  ki, bimolecular rate constant of carbamylation: 365±40 × 10^−4 M^−1min^−1
F295L/F297V HuAChE
  k2, carbamylation rate constant: 2.0 ± 0.4 min⁻¹
E450A HuAChE
  k2, carbamylation rate constant: 0.15 ± 0.01 min⁻¹
[2]; [8]
  k2, carbamylation rate constant: 1.25 ± 0.25 min⁻¹
  ki, bimolecular rate constant of carbamylation: 18±3 × 10^−4 M^−1min^−1
W86A HuAChE; W86A HuAChE
  k2, carbamylation rate constant: 0.80 ± 0.30 min⁻¹
E202A HuAChE
  k2, carbamylation rate constant: 0.24 ± 0.05 min⁻¹
Y72N HuAChE
  k2, carbamylation rate constant: 0.9 ± 0.14 min⁻¹
F295L/F297V/Y337A HuAChE
  k2, carbamylation rate constant: 0.75 ± 0.20 min⁻¹
W86A/Y337A HuAChE
  k2, carbamylation rate constant: 1.2 ± 0.18 min⁻¹
  ki, bimolecular rate constant of carbamylation: 866 ±130 × 10^−4 M^−1min^−1
Y133F HuAChE
  k2, carbamylation rate constant: 0.13 ± 0.01 min⁻¹
Y337A HuAChE; Y337A HuAChE
  k2, carbamylation rate constant: 1.10 ± 0.50 min⁻¹
HuBChE-Wild Type
  k2, carbamylation rate constant: 0.55 ± 0.05 min⁻¹
W86F HuAChE
  k2, carbamylation rate constant: 0.90 ± 0.20 min⁻¹
Y133A HuAChE
  k2, carbamylation rate constant: 0.40 ± 0.02 min⁻¹

Source: article PMC2949283 (The Biochemical journal, 2009)
